Source: patent publication US7632657B2, “Method of detecting meticillin-resistant microorganisms” (priority 2002, dated 2009)

Assays:
[1] = Conservation of antibiotic activity on heating; format: physicochemical; details: temperature of greater than 100° C.; resistance verified by the inventors at 121° C.
Description: (its resistance having even been verified by the inventors at 121° C.).

[2] = test system: AR4295 MetiS: meticillin-sensitive strain; test: Growth of S. aureus strains streaked on CHROMagar Staph aureus medium with antibiotic: meticillin-sensitive strain; format: cell-based, Staphylococcus aureus; set-up: key: + = colony growth; − = no growth; * = microcolonies; details: streaked dishes, 37° C. for 24 hours
Source text: (§1) Study of the growth of meticillin-resistant S. aureus strains on CHROMagar Staph aureus medium (available from the company CHROMagar, 4, Place du 18 Juin 1940, 75006 Paris France): • AR4295 MetiS: meticillin-sensitive strain • AR4297 MetiR: (homogeneous) meticillin-resistant strain • MRhet: (heterogeneous) meticillin-resistant strain • Z252: meticillin-resistant strain, homogeneous, low level of resistance
(§2) Petri dishes are inoculated with bacterial cultures by streaking the dishes, in order to observe the growth of isolated bacteria, after incubation at 37° C. for 24 hours.
(§3) The bacteria that grow give purple colonies on the culture medium, confirming that the microorganisms are Staphylococcus aureus.

[3] = test system: AR4297 MetiR: (homogeneous) meticillin-resistant strain; test: Growth of S. aureus strains streaked on CHROMagar Staph aureus medium with antibiotic: homogeneous meticillin-resistant strain; format: cell-based, Staphylococcus aureus; set-up: key: + = colony growth; − = no growth; * = microcolonies; details: CHROMagar Staph aureus + Cefoxitin 5 mg/l; streaked dishes, 37° C. for 24 hours
Source text: as §1, §2, §3

[4] = test system: MRhet: (heterogeneous) meticillin-resistant strain; test: Growth of S. aureus strains streaked on CHROMagar Staph aureus medium with antibiotic: heterogeneous meticillin-resistant strain; format: cell-based, Staphylococcus aureus; set-up: key: + = colony growth; − = no growth; * = microcolonies; details: streaked dishes, 37° C. for 24 hours
Source text: as §1, §2, §3

[5] = test system: Z252: meticillin-resistant strain, homogeneous, low level of resistance; test: Growth of S. aureus strains streaked on CHROMagar Staph aureus medium with antibiotic: low-level resistant strain; format: cell-based, Staphylococcus aureus; set-up: key: + = colony growth; − = no growth; * = microcolonies; details: streaked dishes, 37° C. for 24 hours
Source text: as §1, §2, §3

[6] = Stability of the detection medium prepared with the antibiotic; format: physicochemical; details: added when the medium is at 48° C.
Description: For example, a stability of at least 2 months has been observed for a medium in accordance with the invention prepared with cefoxitin at a concentration of 5 mg/l, added to the medium when the latter is at a temperature of 48° C. The stability of the medium in accordance with the invention has been brought to at least 5 months when said medium has been prepared with cefmetazole at a concentration of 2.5 mg/l, added to the medium when the latter is at a temperature of 48° C.
The expression “stability of the medium” is intended to denote the ability of the medium in accordance with the invention to allow the selective detection of meticillin-resistant microorganisms, in particular staphylococcus aureus, for a given period of time, with the same reliability throughout the period of time.

[7] = CHROMagar Staph aureus + Cefoxitin 5 mg/l
[8] = CHROMagar Staph aureus + oxacillin 6 mg/ml

## CO[C@@]1(NC(=O)CSC(F)F)C(=O)N2C(C(=O)O)=C(CSc3nnnn3CCO)CO[C@@H]21 [flomoxef]
[1]
  ability to conserve antibiotic activity on heating: conserve its antibiotic activity

## CO[C@@]1(NC(=O)Cc2cccs2)C(=O)N2C(C(=O)O)=C(COC(N)=O)CS[C@@H]21 [Cefoxitin, cefoxitin]
[2]; [7]
  colony growth, AR4295 MetiS: −
[3]
  colony growth, AR4297 MetiR: +
[4]; [7]
  colony growth, MRhet: +
[5]; [7]
  colony growth, Z252: +
[6]; medium prepared with cefoxitin at 5 mg/l
  stability of the medium: at least 2 months

## Cc1onc(-c2ccccc2)c1C(=O)N[C@@H]1C(=O)N2[C@@H]1SC(C)(C)[C@@H]2C(=O)O [oxacillin]
[2]; [8]
  colony growth, AR4295 MetiS: −
[4]; [8]
  colony growth, MRhet: −
[5]; [8]
  colony growth, Z252: −

## CO[C@@]1(NC(=O)CSCC#N)C(=O)N2C(C(=O)O)=C(CSc3nnnn3C)CS[C@@H]21 [cefmetazole]
[6]; medium prepared with cefmetazole at 2.5 mg/l
  stability of the medium: at least 5 months
